Reference: article PMC6424229, “^68Ga-FAPI PET/CT: Biodistribution and Preliminary Dosimetry Estimate of 2 DOTA-Containing FAP-Targeting Agents in Patients with Various Cancers” (Journal of Nuclear Medicine, 2019)
Values joined by “and” are separate entries in the source; they are usually repeats but may differ in a detail not shown here. Equal entries are not always repeated. Where two headings read alike, the source gives them in different places.

Columns and labels:
[1] = literature value, cited from earlier work
[2] = Radiation dosimetry estimate from serial PET/CT (QDOSE; OLINDA 1.1, IDAC-Dose 1.0/2.1); format: in vivo, patients; conditions: for Radiation exposure (effective dose) per 100 MBq: PET; for Radiation exposure (effective dose) per 100 MBq / Effective dose / Dosimetry estimate (OLINDA), Red marrow / Dosimetry estimate (OLINDA), Adrenals / Dosimetry estimate (OLINDA), Brain / Dosimetry estimate (OLINDA), Breasts / Dosimetry estimate (OLINDA), Gallbladder wall / Dosimetry estimate (OLINDA), Heart wall / Dosimetry estimate (OLINDA), Kidneys / Dosimetry estimate (OLINDA), Liver / Dosimetry estimate (OLINDA), Lower large intestine wall / Dosimetry estimate (OLINDA), Lungs / Dosimetry estimate (OLINDA), Muscle / Dosimetry estimate (OLINDA), Osteogenic cells / Dosimetry estimate (OLINDA), Ovaries / Dosimetry estimate (OLINDA), Pancreas / Dosimetry estimate (OLINDA), Skin / Dosimetry estimate (OLINDA), Small intestine / Dosimetry estimate (OLINDA), Spleen / Dosimetry estimate (OLINDA), Stomach wall / Dosimetry estimate (OLINDA), Testes / Dosimetry estimate (OLINDA), Thymus / Dosimetry estimate (OLINDA), Thyroid / Dosimetry estimate (OLINDA), Upper large intestine wall / Dosimetry estimate (OLINDA), Urinary bladder wall / Dosimetry estimate (OLINDA), Uterus / Dosimetry estimate (OLINDA), Total body: one patient per tracer; for Equivalent dose / radiation dose of one examination: examination with 200 MBq of 68Ga; for Dosimetry estimate (OLINDA), Red marrow: approximated from PET volume of interest in a lumbar vertebra; for Dosimetry estimate (OLINDA), Red marrow / Dosimetry estimate (OLINDA), Adrenals / Dosimetry estimate (OLINDA), Brain / Dosimetry estimate (OLINDA), Breasts / Dosimetry estimate (OLINDA), Gallbladder wall / Dosimetry estimate (OLINDA), Heart wall / Dosimetry estimate (OLINDA), Kidneys / Dosimetry estimate (OLINDA), Liver / Dosimetry estimate (OLINDA), Lower large intestine wall / Dosimetry estimate (OLINDA), Lungs / Dosimetry estimate (OLINDA), Muscle / Dosimetry estimate (OLINDA), Osteogenic cells / Dosimetry estimate (OLINDA), Ovaries / Dosimetry estimate (OLINDA), Pancreas / Dosimetry estimate (OLINDA), Skin / Dosimetry estimate (OLINDA), Small intestine / Dosimetry estimate (OLINDA), Spleen / Dosimetry estimate (OLINDA), Stomach wall / Dosimetry estimate (OLINDA), Testes / Dosimetry estimate (OLINDA), Thymus / Dosimetry estimate (OLINDA), Thyroid / Dosimetry estimate (OLINDA), Upper large intestine wall / Dosimetry estimate (OLINDA), Urinary bladder wall / Dosimetry estimate (OLINDA), Uterus / Dosimetry estimate (OLINDA), Total body: unit not given; for Dosimetry estimate (OLINDA), Adrenals / Dosimetry estimate (OLINDA), Brain / Dosimetry estimate (OLINDA), Breasts / Dosimetry estimate (OLINDA), Gallbladder wall / Dosimetry estimate (OLINDA), Heart wall / Dosimetry estimate (OLINDA), Kidneys / Dosimetry estimate (OLINDA), Liver / Dosimetry estimate (OLINDA), Lower large intestine wall / Dosimetry estimate (OLINDA), Lungs / Dosimetry estimate (OLINDA), Muscle / Dosimetry estimate (OLINDA), Osteogenic cells / Dosimetry estimate (OLINDA), Ovaries / Dosimetry estimate (OLINDA), Pancreas / Dosimetry estimate (OLINDA), Skin / Dosimetry estimate (OLINDA), Small intestine / Dosimetry estimate (OLINDA), Spleen / Dosimetry estimate (OLINDA), Stomach wall / Dosimetry estimate (OLINDA), Testes / Dosimetry estimate (OLINDA), Thymus / Dosimetry estimate (OLINDA), Thyroid / Dosimetry estimate (OLINDA), Upper large intestine wall / Dosimetry estimate (OLINDA), Urinary bladder wall / Dosimetry estimate (OLINDA), Uterus: organ dose
Protocol: (§1) To approximate the dosimetry, imaging was performed 10 min, 1 h, and 3 h after injection of 306 MBq of ^68Ga-FAPI-2 in one patient and 258 MBq of ^68Ga-FAPI-4 in another patient.
The dosimetry analysis was performed using the QDOSE dosimetry software suite (ABX-CRO). Kidneys, liver, spleen, urinary bladder content, red marrow, heart content, and remainder of body were included as source organs. Because of blood sampling failure due to poor vein conditions, the red marrow dose was approximated using the activity segmented with volume-of-interest technique in the PET scans. The non–tumor-affected lumbar vertebrae 5 (^68Ga-FAPI-2) and 4 (^68Ga-FAPI-4) were assumed to contain 2.46% of the total red marrow ([6]). Using QDOSE, all CT images were coregistered using an automatic deformable coregistration. PET images were coupled to the CT images of the corresponding imaging session. The PET images were transformed according to the transformation matrix of the coupled CT. The volumes of interest of all segmented source organs were drawn in the examination that had the best organ delineation and then were copied onto all other time points to calculate the time–activity curves. Monoexponential curve fitting was then applied to all organ time–activity curves. The cumulative activity Ã between time 0 and the first measured time point was calculated assuming a linear increase from 0 to the first measured activity. The Ã between the first measured time point and the last measured time point was integrated numerically using trapezoidal approximation. The Ã from the last measured time point to infinity was integrated using the fitted function. The total-body Ã was based on the injected activity and the calculated effective half-life in a total-field-of-view volume of interest, assuming that the limbs behave similar to the torso. This approach was chosen because some parts of the body were not in the field of view of the PET/CT device. The Ã values of total body and red marrow were added as organs into QDOSE. The Ã of the remainder of the body was then automatically calculated by subtracting all source-organ Ã values from the total-body Ã. All source-organ residence times were calculated by dividing the Ã by the injected activity. Absorbed and effective dose calculations were performed using the International Commission on Radiological Protection (ICRP)–endorsed IDAC-Dose 2.1 and IDAC-Dose 1.0 ([7]), which are integrated in QDOSE. In addition, the residence times of all included source organs and remainder of body were exported as an OLINDA case file for dose calculation in OLINDA 1.1 ([8]). Both IDAC-Dose 1.0 and OLINDA 1.1 are based on the Cristy–Eckerman stylized phantom series ([9]). IDAC-Dose 2.1 is based on the ICRP adult reference computational phantoms ([10]) and the ICRP-specific absorbed fractions ([11]). Organ masses were not adapted to individual subject organ masses.

[3] = system: tumor lesions; assay: Serial PET/CT 10 min, 1 h and 3 h after injection (tracer kinetics, tumor retention); format: in vivo, patients; conditions: mean; one patient with metastasized breast cancer per tracer
Protocol: as §1

[4] = system: tumor lesions; assay: PET/CT tumor uptake (SUVmax) 1 h after injection; conditions: not statistically significant; for Uptake by tumors, average SUVmax: interindividual comparison, 25 patients per tracer
[5] = PET/CT normal-organ / background uptake (SUVmax) 1 h after injection; conditions: for Unspecific uptake in locations of wound healing after surgical intervention, average SUVmax: interindividual comparison, 25 patients per tracer, not statistically significant
[6] = intraindividual comparison of 6 patients

Row | Structure (SMILES) | Radiation exposure (effective dose) per 100 MBq [2] | Effective dose ([2]; calculated with IDAC1/ICRP60) [mSv/MBq] | Effective dose ([2]; calculated with IDAC2/ICRP103) [mSv/MBq] | Effective dose ([2]; calculated with OLINDA) | Equivalent dose / radiation dose of one examination [2] | Dosimetry estimate (OLINDA), Red marrow [2] | Dosimetry estimate (OLINDA), Adrenals [2] | Dosimetry estimate (OLINDA), Brain [2] | Dosimetry estimate (OLINDA), Breasts [2] | Dosimetry estimate (OLINDA), Gallbladder wall [2] | Dosimetry estimate (OLINDA), Heart wall [2] | Dosimetry estimate (OLINDA), Kidneys [2] | Dosimetry estimate (OLINDA), Liver [2] | Dosimetry estimate (OLINDA), Lower large intestine wall [2] | Dosimetry estimate (OLINDA), Lungs [2] | Dosimetry estimate (OLINDA), Muscle [2] | Dosimetry estimate (OLINDA), Osteogenic cells [2] | Dosimetry estimate (OLINDA), Ovaries [2] | Dosimetry estimate (OLINDA), Pancreas [2] | Dosimetry estimate (OLINDA), Skin [2] | also measured
1 | O=C([O-])CN(CCN(CC(=O)[O-])Cc1cc(CCC(=O)NCCCCCC(=O)NCCCC[C@H](NC(=O)N[C@@H](CCC(=O)O)C(=O)O)C(=O)O)ccc1[O-])Cc1cc(CCC(=O)O)ccc1[O-].[68Ga+3].[OH3+] [^68Ga-PSMA-11] | – | – | – | – | – | – | – | – | – | – | – | – | – | – | – | – | – | – | – | – | Effective dose [1]: 1.6–2.4 mSv/100 MBq
2 | N#C[C@@H]1CC(F)(F)CN1C(=O)CNC(=O)c1ccnc2ccc(OCCCN3CCN(C(=O)CN4CCN(CC(=O)O)CCN(CC(=O)O)CCN(CC(=O)O)CC4)CC3)cc12 [^68Ga-FAPI-4, metal not drawn] | 1.8 mSv/100 MBq and 1.4–1.8 mSv/100 MBq | 1.66E−2 | 1.35E−2 | 1.64E−2 mSv/MBq and 1.64E−02 mSv/MBq | 3–4 mSv | 2.08E−02 | 1.12E−02 | 9.11E−03 | 8.88E−03 | 1.13E−02 | 2.02E−02 | 4.43E−02 | 1.46E−02 | 1.17E−02 | 9.89E−03 | 9.91E−03 | 2.16E−02 | 1.19E−02 | 1.13E−02 | 8.63E−03 | Dosimetry estimate (OLINDA), Small intestine [2]: 1.13E−02; Dosimetry estimate (OLINDA), Spleen [2]: 1.05E−02; Dosimetry estimate (OLINDA), Stomach wall [2]: 1.06E−02; Dosimetry estimate (OLINDA), Testes [2]: 1.01E−02; Dosimetry estimate (OLINDA), Thymus [2]: 1.01E−02; Dosimetry estimate (OLINDA), Thyroid [2]: 9.82E−03; Dosimetry estimate (OLINDA), Upper large intestine wall [2]: 1.11E−02; Dosimetry estimate (OLINDA), Urinary bladder wall [2]: 9.91E−02; Dosimetry estimate (OLINDA), Uterus [2]: 1.30E−02; Dosimetry estimate (OLINDA), Total body [2]: 1.09E−02; Decline of tumor uptake (washout) from 1 h to 3 h after injection [3]: 25%; Uptake by tumors, average SUVmax [4]: 10.07; Unspecific uptake in locations of wound healing after surgical intervention, average SUVmax [5]: 6.76
3 | O=C([O-])CN1CCN(CC(=O)[O-])CCN(CC(=O)NC[C@H]2CC[C@H](C(=O)N[C@@H](Cc3ccc4ccccc4c3)C(=O)NCCCC[C@H](NC(=O)N[C@@H](CCC(=O)O)C(=O)O)C(=O)O)CC2)CCN(CC(=O)[O-])CC1.[68Ga+3] [^68Ga-PSMA-617] | – | – | – | – | – | – | – | – | – | – | – | – | – | – | – | – | – | – | – | – | Effective dose ([1]; no reference of its own printed): 2.1 mSv/100 MBq
4 | N#C[C@@H]1CCCN1C(=O)CNC(=O)c1ccnc2ccc(OCCCN3CCN(C(=O)CN4CCN(CC(=O)O)CCN(CC(=O)O)CCN(CC(=O)O)CC4)CC3)cc12 [^68Ga-FAPI-2, metal not drawn] | 1.4 mSv/100 MBq and 1.4–1.8 mSv/100 MBq | 1.82E−2 | 1.79E−2 | 1.80E−2 mSv/MBq and 1.80E−02 mSv/MBq | 3–4 mSv | 3.28E−02 | 1.23E−02 | 9.54E−03 | 9.58E−03 | 1.19E−02 | 4.73E−02 | 4.45E−02 | 1.51E−02 | 1.23E−02 | 1.09E−02 | 1.04E−02 | 2.94E−02 | 1.24E−02 | 1.23E−02 | 9.01E−03 | Dosimetry estimate (OLINDA), Small intestine [2]: 1.19E−02; Dosimetry estimate (OLINDA), Spleen [2]: 2.62E−02; Dosimetry estimate (OLINDA), Stomach wall [2]: 1.13E−02; Dosimetry estimate (OLINDA), Testes [2]: 1.04E−02; Dosimetry estimate (OLINDA), Thymus [2]: 1.15E−02; Dosimetry estimate (OLINDA), Thyroid [2]: 1.03E−02; Dosimetry estimate (OLINDA), Upper large intestine wall [2]: 1.17E−02; Dosimetry estimate (OLINDA), Urinary bladder wall [2]: 8.89E−02; Dosimetry estimate (OLINDA), Uterus [2]: 1.33E−02; Dosimetry estimate (OLINDA), Total body [2]: 1.19E−02; Decline of tumor uptake (washout) from 1 h to 3 h after injection [3]: 75%; Uptake by tumors, average SUVmax [4]: 8.37; Tumor uptake, average SUVmax [4, 6]: 7.37; Unspecific uptake in locations of wound healing after surgical intervention, average SUVmax [5]: 7.07; Background uptake in brain, average SUVmax [5, 6]: 0.32; Background uptake in liver, average SUVmax [5, 6]: 1.69; Background uptake in oral/pharyngeal mucosa, average SUVmax [5, 6]: 2.57; Uptake in all other organs compared with 18F-FDG ([5]; organs other than brain, liver, oral/pharyngeal mucosa, 6 patients): no significant difference
